According to doi:10.1101/2023.11.24.568596v1 (biorxiv, 2023):
Each block holds one molecule with its values, some of them ahead of it.

Tests used:
Details in all cases: binder
[1] = target: T1, MAP2K7 (Homo sapiens, UniProt O14733)
T1 sequence (O14733 1-419): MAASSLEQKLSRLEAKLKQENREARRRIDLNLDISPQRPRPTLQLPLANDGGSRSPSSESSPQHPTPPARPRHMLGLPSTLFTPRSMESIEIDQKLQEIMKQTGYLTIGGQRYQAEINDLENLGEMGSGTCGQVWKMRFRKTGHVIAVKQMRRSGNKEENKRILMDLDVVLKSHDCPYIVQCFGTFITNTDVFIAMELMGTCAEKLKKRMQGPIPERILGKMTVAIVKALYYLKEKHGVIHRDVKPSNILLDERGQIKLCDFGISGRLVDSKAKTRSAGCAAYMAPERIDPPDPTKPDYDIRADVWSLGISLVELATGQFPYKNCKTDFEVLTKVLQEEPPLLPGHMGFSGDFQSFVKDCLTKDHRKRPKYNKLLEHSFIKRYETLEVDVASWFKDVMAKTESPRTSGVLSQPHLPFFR

[2] = target: T2, Haspin (Homo sapiens, UniProt Q8TF76)
T2 sequence (Q8TF76 1-798): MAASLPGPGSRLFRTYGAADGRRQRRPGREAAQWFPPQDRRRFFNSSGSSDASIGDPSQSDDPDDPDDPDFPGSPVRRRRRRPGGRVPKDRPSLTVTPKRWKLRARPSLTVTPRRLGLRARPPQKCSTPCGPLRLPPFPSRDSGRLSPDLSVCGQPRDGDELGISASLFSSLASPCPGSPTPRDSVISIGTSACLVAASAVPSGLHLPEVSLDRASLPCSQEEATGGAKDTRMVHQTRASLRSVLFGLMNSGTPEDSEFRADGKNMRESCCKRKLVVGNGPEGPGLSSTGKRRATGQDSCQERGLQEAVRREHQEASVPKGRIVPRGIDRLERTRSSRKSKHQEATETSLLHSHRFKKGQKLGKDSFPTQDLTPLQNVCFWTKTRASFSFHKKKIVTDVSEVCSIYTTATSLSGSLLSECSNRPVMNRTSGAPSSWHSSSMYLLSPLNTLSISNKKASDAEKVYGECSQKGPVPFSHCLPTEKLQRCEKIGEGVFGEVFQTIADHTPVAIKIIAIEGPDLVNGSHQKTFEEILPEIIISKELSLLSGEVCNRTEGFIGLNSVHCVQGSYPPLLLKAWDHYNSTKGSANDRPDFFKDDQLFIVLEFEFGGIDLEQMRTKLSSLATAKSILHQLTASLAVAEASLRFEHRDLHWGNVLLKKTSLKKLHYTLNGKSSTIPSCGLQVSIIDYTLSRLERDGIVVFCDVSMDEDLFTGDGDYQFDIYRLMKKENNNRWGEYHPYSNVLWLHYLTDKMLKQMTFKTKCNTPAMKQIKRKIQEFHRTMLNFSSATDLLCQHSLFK

[3] = target: T3, CaMK4 (Homo sapiens, UniProt Q16566)
T3 sequence (Q16566 1-473): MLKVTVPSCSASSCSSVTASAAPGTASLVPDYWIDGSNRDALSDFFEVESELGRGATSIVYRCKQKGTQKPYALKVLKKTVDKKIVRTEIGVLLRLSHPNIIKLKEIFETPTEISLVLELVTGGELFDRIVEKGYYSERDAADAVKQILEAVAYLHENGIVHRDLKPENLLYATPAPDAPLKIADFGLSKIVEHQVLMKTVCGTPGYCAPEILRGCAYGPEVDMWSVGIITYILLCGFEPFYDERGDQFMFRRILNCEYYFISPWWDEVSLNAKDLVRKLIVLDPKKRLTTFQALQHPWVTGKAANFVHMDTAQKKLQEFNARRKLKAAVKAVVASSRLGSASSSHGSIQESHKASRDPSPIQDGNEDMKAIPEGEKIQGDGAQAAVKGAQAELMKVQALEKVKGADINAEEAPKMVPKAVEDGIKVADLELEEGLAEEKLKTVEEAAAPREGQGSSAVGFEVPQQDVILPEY

[4] = target: Erk2 (Homo sapiens, UniProt P28482)
[5] = target: MELK (Homo sapiens, UniProt Q14680)
[6] = target: ABL1 (Homo sapiens, UniProt P00519)
[7] = target: T4, FECH (Homo sapiens, UniProt P22830)
T4 sequence (P22830 1-423): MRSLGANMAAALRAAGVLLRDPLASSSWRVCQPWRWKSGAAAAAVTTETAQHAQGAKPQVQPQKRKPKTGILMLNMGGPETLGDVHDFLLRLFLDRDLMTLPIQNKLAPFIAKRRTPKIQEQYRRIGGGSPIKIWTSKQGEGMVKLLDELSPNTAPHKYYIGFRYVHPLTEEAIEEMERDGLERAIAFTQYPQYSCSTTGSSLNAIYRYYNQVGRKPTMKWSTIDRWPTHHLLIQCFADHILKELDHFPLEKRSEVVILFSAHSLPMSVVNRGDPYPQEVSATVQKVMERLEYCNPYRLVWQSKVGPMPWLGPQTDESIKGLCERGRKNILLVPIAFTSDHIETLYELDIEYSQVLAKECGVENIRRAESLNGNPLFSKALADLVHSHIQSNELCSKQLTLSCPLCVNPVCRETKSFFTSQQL

[8] = target: Erk3 (Homo sapiens, UniProt Q16659)
Chain of Erk3 (Q16659 whole entry): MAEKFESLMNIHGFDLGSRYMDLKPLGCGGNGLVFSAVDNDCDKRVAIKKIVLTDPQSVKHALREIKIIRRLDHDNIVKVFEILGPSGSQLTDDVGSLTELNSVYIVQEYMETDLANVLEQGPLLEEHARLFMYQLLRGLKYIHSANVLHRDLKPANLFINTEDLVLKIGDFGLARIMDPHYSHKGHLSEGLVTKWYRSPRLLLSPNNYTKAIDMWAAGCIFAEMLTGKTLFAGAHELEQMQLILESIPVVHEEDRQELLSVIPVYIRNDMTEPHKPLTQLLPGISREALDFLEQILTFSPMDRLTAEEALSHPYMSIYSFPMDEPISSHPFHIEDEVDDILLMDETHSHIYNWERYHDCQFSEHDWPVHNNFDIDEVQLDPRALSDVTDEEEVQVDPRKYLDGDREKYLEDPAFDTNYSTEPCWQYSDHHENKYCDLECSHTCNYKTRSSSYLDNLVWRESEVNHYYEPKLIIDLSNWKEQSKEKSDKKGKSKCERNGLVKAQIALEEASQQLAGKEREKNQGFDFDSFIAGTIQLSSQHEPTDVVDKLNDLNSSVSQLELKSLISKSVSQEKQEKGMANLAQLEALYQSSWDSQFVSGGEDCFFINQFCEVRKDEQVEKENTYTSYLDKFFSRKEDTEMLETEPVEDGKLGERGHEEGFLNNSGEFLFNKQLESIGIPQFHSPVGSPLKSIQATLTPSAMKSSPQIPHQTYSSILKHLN

Chain of ABL1 (P00519 whole entry): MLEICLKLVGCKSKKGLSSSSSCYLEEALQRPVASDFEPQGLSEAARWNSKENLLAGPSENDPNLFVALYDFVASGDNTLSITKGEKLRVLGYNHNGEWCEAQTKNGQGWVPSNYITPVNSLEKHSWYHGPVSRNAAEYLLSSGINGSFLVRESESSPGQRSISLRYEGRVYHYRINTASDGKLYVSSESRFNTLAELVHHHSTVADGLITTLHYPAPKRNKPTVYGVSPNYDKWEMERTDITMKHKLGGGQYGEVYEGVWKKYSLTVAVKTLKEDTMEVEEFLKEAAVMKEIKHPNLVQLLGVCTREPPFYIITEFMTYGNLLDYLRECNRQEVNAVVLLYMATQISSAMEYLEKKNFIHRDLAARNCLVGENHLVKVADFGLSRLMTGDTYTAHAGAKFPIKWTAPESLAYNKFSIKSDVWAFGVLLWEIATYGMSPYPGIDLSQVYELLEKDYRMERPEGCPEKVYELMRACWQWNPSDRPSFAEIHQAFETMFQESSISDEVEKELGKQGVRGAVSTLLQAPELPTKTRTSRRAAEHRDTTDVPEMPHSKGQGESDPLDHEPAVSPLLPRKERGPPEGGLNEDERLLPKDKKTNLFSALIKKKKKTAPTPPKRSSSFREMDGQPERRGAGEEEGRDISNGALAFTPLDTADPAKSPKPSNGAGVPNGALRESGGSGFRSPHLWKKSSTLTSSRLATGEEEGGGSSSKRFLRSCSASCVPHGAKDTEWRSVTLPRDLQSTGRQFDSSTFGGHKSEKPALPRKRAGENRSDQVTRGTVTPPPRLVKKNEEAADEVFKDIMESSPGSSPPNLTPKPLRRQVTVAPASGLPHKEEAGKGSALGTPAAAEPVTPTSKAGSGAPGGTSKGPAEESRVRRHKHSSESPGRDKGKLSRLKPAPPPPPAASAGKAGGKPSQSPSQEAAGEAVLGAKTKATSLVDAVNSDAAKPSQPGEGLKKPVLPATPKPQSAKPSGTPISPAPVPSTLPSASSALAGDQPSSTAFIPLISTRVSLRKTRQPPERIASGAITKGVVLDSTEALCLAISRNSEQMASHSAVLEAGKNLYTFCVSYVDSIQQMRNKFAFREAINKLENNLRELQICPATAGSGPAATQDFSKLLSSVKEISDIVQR
Chain of MELK (Q14680 whole entry): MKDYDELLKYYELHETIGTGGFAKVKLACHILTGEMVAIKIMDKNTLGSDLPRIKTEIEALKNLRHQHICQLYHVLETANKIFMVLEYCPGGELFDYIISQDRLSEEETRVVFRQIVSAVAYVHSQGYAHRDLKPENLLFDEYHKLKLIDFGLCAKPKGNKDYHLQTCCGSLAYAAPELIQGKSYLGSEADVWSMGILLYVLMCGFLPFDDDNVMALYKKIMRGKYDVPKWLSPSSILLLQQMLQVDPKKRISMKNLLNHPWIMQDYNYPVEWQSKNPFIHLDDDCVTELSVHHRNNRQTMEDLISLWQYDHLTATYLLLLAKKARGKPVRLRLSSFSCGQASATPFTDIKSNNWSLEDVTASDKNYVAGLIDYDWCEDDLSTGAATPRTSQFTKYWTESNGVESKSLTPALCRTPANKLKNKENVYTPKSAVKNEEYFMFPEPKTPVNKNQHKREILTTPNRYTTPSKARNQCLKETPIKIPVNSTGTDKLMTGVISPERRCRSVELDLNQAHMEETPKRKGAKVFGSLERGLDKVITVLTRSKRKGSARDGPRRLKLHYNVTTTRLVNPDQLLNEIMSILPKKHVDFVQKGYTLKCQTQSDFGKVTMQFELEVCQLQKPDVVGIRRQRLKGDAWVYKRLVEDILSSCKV
Chain of Erk2 (P28482 whole entry): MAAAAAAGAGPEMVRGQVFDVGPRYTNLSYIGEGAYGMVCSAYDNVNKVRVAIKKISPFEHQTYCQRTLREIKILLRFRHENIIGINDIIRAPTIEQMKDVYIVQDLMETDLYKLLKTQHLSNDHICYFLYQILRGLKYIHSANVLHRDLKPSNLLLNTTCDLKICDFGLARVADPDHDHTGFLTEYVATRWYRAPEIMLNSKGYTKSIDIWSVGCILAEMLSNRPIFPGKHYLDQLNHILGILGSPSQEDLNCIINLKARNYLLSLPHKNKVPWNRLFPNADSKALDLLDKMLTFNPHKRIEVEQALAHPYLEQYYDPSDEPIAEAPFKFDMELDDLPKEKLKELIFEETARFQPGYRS

dTm 33 [1]: 7.7 °C
dTm 33 [2]: -0.2 °C
dTm 33 [3]: 5.2 °C
dTm 33 [4]: -0.7 °C
dTm 33 [5]: 6.4 °C
dTm 33 [6]: 10.6 °C
dTm 33 [7]: -2.9 °C
dTm 33 [8]: 0.9 °C
Structure (SMILES): Cc1cccc(-c2ccc(-c3cc4cnc(Nc5ccc(F)c(CO)c5)nc4n(CCCCN)c3=O)c(Cl)c2)n1 [compound 33, 8-(4-Aminobutyl)-6-(2-chloro-4-(6-methylpyridin-2-yl)phenyl)-2-((4-fluoro-3-(hydroxymethyl)phenyl)amino)pyrido[2,3-d]pyrimidin-7(8H)-one]

dTm 35 [1]: 2.0 °C
dTm 35 [2]: -0.1 °C
dTm 35 [3]: 5.7 °C
dTm 35 [4]: -3.0 °C
dTm 35 [5]: 7.5 °C
dTm 35 [6]: 5.8 °C
dTm 35 [7]: 7.0 °C
dTm 35 [8]: 0.6 °C
Structure (SMILES): COc1cc(N2CCOCC2)ccc1Nc1ncc2cc(-c3ccc(-c4cccc(C)n4)cc3Cl)c(=O)n(CCCCN)c2n1 [compound 35, 8-(4-Aminobutyl)-6-(2-chloro-4-(6-methylpyridin-2-yl)phenyl)-2-((2-methoxy-4-morpholino-phenyl)amino)pyrido[2,3-d]pyrimidin-7(8H)-one]

dTm 36 [1]: 0.0 °C
dTm 36 [2]: -0.7 °C
dTm 36 [3]: 3.2 °C
dTm 36 [4]: -2.7 °C
dTm 36 [5]: 7.4 °C
dTm 36 [6]: 5.0 °C
dTm 36 [7]: 3.0 °C
dTm 36 [8]: 0.5 °C
Structure (SMILES): COc1cc(N2CCN(C)CC2)ccc1Nc1ncc2cc(-c3ccc(-c4cccc(C)n4)cc3Cl)c(=O)n(CCCCN)c2n1 [compound 36, 8-(4-Aminobutyl)-6-(2-chloro-4-(6-methylpyridin-2-yl)phenyl)-2-((2-methoxy-4-(4-methylpiperazin-1-yl)phenyl)amino)pyrido[2,3-d]pyrimidin-7(8H)-one]

dTm 34 [1]: 1.3 °C
dTm 34 [2]: -0.2 °C
dTm 34 [3]: 3.9 °C
dTm 34 [4]: -2.7 °C
dTm 34 [5]: 3.3 °C
dTm 34 [6]: 5.2 °C
dTm 34 [7]: 3.2 °C
dTm 34 [8]: 0.7 °C
Structure (SMILES): COc1ccc(O)c(Nc2ncc3cc(-c4ccc(-c5cccc(C)n5)cc4Cl)c(=O)n(CCCCN)c3n2)c1 [compound 34, 8-(4-Aminobutyl)-6-(2-chloro-4-(6-methylpyridin-2-yl)phenyl)-2-((2-hydroxy-5-methoxy-phenyl)amino)pyrido[2,3-d]pyrimidin-7(8H)-one]
